Several values for one entry are separate records, joined by “and”; a condition that tells them apart may be missing. Equal values may be shown once.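 Tested at 5 concentrations; 48 h exposure; 96-well plates; endpoints linearly interpolated, else capped at highest concentration. Here, GI50 denotes the concentration required for 50% inhibition of growth. TGI is the concentration that stops growth completely.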
Key:
Test in all cases: growth of human tumour cells (NCI), 48 h
CCRF-CEM leukemia = system: CCRF-CEM leukemia
HT29 colon = system: HT29 colon
NCI-H23 lung = system: NCI-H23 lung
OVCAR-5 ovarian = system: OVCAR-5 ovarian
RXF 393 renal = system: RXF 393 renal
SK-OV-3 ovarian = system: SK-OV-3 ovarian
NCI/ADR-RES ovarian = system: NCI/ADR-RES ovarian
HS 578T breast = system: HS 578T breast

Structure (SMILES) | GI50 (CCRF-CEM leukemia) | TGI (CCRF-CEM leukemia) | GI50 (HT29 colon) | TGI (HT29 colon) | GI50 (NCI-H23 lung) | TGI (NCI-H23 lung) | GI50 (OVCAR-5 ovarian) | TGI (OVCAR-5 ovarian) | GI50 (RXF 393 renal) | TGI (RXF 393 renal) | GI50 (SK-OV-3 ovarian) | TGI (SK-OV-3 ovarian) | TGI (NCI/ADR-RES ovarian) | GI50 (HS 578T breast) | TGI (HS 578T breast) | GI50 (NCI/ADR-RES ovarian)
CC(=O)[CH-]C(=O)c1ccccc1.CC(=O)[CH-]C(=O)c1ccccc1.C[C@]12CCC(=O)C=C1CC[C@@H]1C2CC[C@@]2(C)C1CC[C@@H]2[O-].C[C@]12CCC(=O)C=C1CC[C@@H]1C2CC[C@@]2(C)C1CC[C@@H]2[O-].Cl.[Ti+4] (stereo partly specified) | 23.8 µM | > 100 µM | 17.5 µM | 37.2 µM | 16.2 µM | 32.1 µM | 11.8 µM | 55.8 µM | 16.2 µM | 31.9 µM | 27 µM | 56.9 µM |  |  |  | 
Clc1cc(Cl)cc(N2N=C(c3cccc(Nc4ccncc4)c3)CC2c2ccc3c(c2)OCO3)c1 (stereo unspecified) | 2.72 µM | 18.4 µM | 2.14 µM | 4.72 µM | 1.79 µM | 3.45 µM | 1.83 µM | 3.51 µM |  |  | 2.54 µM | 8.38 µM |  |  |  | 
CC(=O)Nc1ccc(COC(O)CN2CCCCC2)cc1[N+](=O)[O-] (stereo unspecified) |  | > 100 µM |  | > 100 µM |  | > 100 µM |  | > 100 µM |  | > 100 µM |  |  | > 100 µM |  |  | 
Oc1cc2ccccc2c(-c2c(O)c(O)cc3ccccc23)c1O | 0.554 µM | > 27.7 µM | 3.95 µM | 25.3 µM | 0.703 µM | 15.4 µM | 4.54 µM | 24.1 µM |  |  | 1.68 µM | 17.3 µM | 12.4 µM | 2.9 µM | > 44.1 µM | 1.83 µM
CN(Cc1cc(Cl)cc(Cl)c1O)Cc1c(O)ccc2ccccc12 |  |  |  | > 100 µM |  | 33.5 µM |  | 52.5 µM |  | 33.6 µM |  | 36.8 µM | 42.5 µM |  | 44.4 µM | 
Cc1c(O)c2c(c(O)c1Br)C(=O)C=CC2=O |  |  | 0.602 µM | 1.1 µM and 2.8 µM | 1.48 µM | 2.09 µM and 3.28 µM | 1.95 µM | 3.19 µM and 3.92 µM | 0.229 µM | 2.72 µM and 0.582 µM | 14.1 µM | 3.93 µM and 27.1 µM | 1.66 µM and 7.1 µM |  | 6.34 µM | 2.4 µM
COc1cc(/C=C/C(=O)N2CCN(C(=O)c3cc(OC)c(OC)c(OC)c3)CC2)ccc1OCCCOc1cc2c(cc1OC)C(=O)N1CCC[C@H]1C=N2 | 0.0832 µM | > 100 µM | 0.34 µM | 12.8 µM | 0.296 µM | 0.974 µM |  |  | 0.334 µM | 3.68 µM | 0.551 µM | > 71.3 µM | > 95 µM | 0.31 µM | 0.841 µM | 11.4 µM
NCC1OC(OC2C(CO)OC(OC3C(O)C(N)CC(N)C3OC3OC(CO)C(O)CC3N)C2O)C(N)C(O)C1OC1OC(CO)C(O)C(O)C1O (stereo unspecified) | > 50 µg/mL | > 50 µg/mL | > 50 µg/mL | > 50 µg/mL | > 50 µg/mL | > 50 µg/mL | > 50 µg/mL | > 50 µg/mL |  |  | > 50 µg/mL | > 50 µg/mL | > 50 µg/mL | > 50 µg/mL | > 50 µg/mL | > 50 µg/mL
CCN1Cc2nc3sc(C)c(C)c3c(=O)n2C=C1C | 2.52 µM | 8.21 µM | 3.9 µM | 15.8 µM | 7.26 µM | > 100 µM | 42.3 µM | > 100 µM |  |  | 74.1 µM | > 100 µM | 79.6 µM | 1.66 µM | 6.92 µM | 5.12 µM
COC1=CC(c2ccc[nH]2)=N/C1=C\c1[nH]c(C)c(C(=O)CCCCC(=O)Oc2ccc3c(c2)CCC2C3CC[C@]3(C)[C@@H](O)CC[C@@H]23)c1C (stereo partly specified) | 0.668 µM | > 100 µM |  |  | 39.9 µM | > 100 µM | > 100 µM | > 100 µM | 25.8 µM | > 100 µM | > 100 µM | > 100 µM | > 100 µM |  |  | > 100 µM
COc1cc(/C=C2\C[C@H]3[C@@H]4CC=C5C[C@@H](O)CC[C@]5(C)[C@H]4CC[C@]3(C)[C@H]2O)ccc1OCCCn1ccnc1 |  |  | 2.68 µM | > 50 µM | 9.31 µM | 40.8 µM | 7.14 µM | 23.3 µM | 2.52 µM | 43.4 µM |  |  | > 50 µM | 1.18 µM | 4.24 µM | 13.6 µM
Cn1c(/C=C/[N+](=O)[O-])cc2ccccc21 | 16.9 µM | > 100 µM | 1.68 µM | 4.02 µM | 2.73 µM | 17.1 µM | 21.2 µM | 56.6 µM | 1.66 µM | 3.08 µM | 13.2 µM | 26.3 µM | 92.5 µM |  |  | 6.45 µM
O=C1c2cccc(NCCN=Cc3ccccc3O)c2C(=O)c2c(NCCN=Cc3ccccc3O)cccc21 | 1.02 µM | 4.24 µM | 0.298 µM | 1.93 µM | 1.01 µM | 3.2 µM | 1.41 µM | 5.43 µM |  |  | 1.5 µM | 4.99 µM | 97.1 µM | 0.838 µM | 3.98 µM | 11.5 µM
